Measurements published in patent US20220218852A1, “NOVEL RADIOLABELLED CXCR4-TARGETING COMPOUNDS FOR DIAGNOSIS AND THERAPY” (PROVINCIAL HEALTH SERVICES AUTHORITY, priority 2019, published 2022).
Read-outs that look alike come from different tables or passages of the source. Positions of bridges follow the written chain, without caps; N, C: chain ends. Non-standard residues stand in square brackets, D forms with d. Residues, ends and D or L forms follow the SMILES beside them. Groups on a side chain read outwards from the residue. *: point of attachment. DOTA = O=C(O)CN1CCN(CC(=O)O)CCN(CC(=O)*)CCN(CC(=O)O)CC1; 2Nal = N[C@@H](Cc1ccc2ccccc2c1)C(=O)O; Lys(iPr) = CC(C)NCCCC[C@H](N)C(=O)O

Tests used:
[1] = Biodistribution in PC3 tumor-bearing mice; format: in vivo; conditions: male, NOD.Cg-Rag1^tm1MomII2rg^tm1Wjl/SzJ (NRG), mouse, iv, total radioactivity
Procedure: (§1) For Daudi, Z138, GRANTA519 and Jeko1 xenografts, male NOD.Cg-Rag1^tm1MomII2rg^tm1Wjl/SzJ (NRG) mice were subcutaneously inoculated on the left flank with 5×10^6 cells (100 μL; 1:1 ratio of PBS/Matrigel) and tumors were grown to a size of 200-500 mm^3. For PC-3 xenografts, male NOD.Cg-Rag1^tm1MomII2rg^tm1Wjl/SzJ (NRG) mice were subcutaneously inoculated on the left flank with 5×10^6 PC-3 cells (100 μL; 1:1 ratio of PBS/Matrigel) and tumors were grown to a size of 200-400 mm^3.
(§2) The mice were euthanized via CO2 inhalation while anesthetized with isoflurane. Tissues were harvested, washed in PBS, blotted dry, weighed, and measured on a Hidex AMG Automatic Gamma Counter.

[2] = test system: PC3 prostate adenocarcinoma xenografts; experiment: Biodistribution in PC3 tumor-bearing mice; format: in vivo
Procedure: as §1, §2

[3] = In vivo stability (plasma radio-HPLC) in male NRG mice; conditions: 5 mins
Excerpt: Radiolabeled peptides (10-30 MBq) was intravenously injected into male NRG mice. After a 5-min, 24-hour or 120-hour uptake period, mice were sedated/euthanized, and blood was collected. The plasma was isolated and analyzed with analytical radio-HPLC following published procedures (Lin et al., Cancer Res. 2015, 75:387-393).

[4] = 1 h blocked (7.5 μg LY2510924 i.p.)

CC(C)NCCCC[C@@H]1NC(=O)[C@H](Cc2ccc(O)cc2)NC(=O)[C@H](Cc2ccccc2)NC(=O)CC[C@H](C(=O)N[C@@H](CCCCNC(C)C)C(=O)N[C@@H](CCCCNC(=O)[C@H](CCC(=O)O)NC(=O)[C@H](CCC(=O)O)NC(=O)[C@H](CCC(=O)O)NC(=O)CN2CCN(CC(=O)O)CCN(CC(=O)O)CCN(CC(=O)O)CC2)C(N)=O)NC(=O)CNC(=O)[C@H](Cc2ccc3ccccc3c2)NC(=O)[C@@H](CCCNC(=N)N)NC1=O [[^68Ga]Ga-BL02, metal not drawn] (FY[Lys(iPr)][dR][2Nal]G[dE][Lys(iPr)]K([Glu-Glu-Glu-DOTA])-NH2; lactam N-7)
tissue uptake at 1 h ([1]; PC3 tumor, 1 h, read-out: Biodistribution PC3 (tumor)): 1.83 %ID/g
tissue uptake at 1 h ([1]; PC3 tumor, 1 h blocked (7.5 μg LY2510924 i.p.), read-out: Biodistribution PC3 (tumor)): 0.75 %ID/g
tissue uptake at 2 h ([1]; PC3 tumor, read-out: Biodistribution PC3 (tumor)): 1.41 %ID/g
tissue uptake at 1 h ([1]; adrenals, 1 h, read-out: Biodistribution Adrenals): 0.18 %ID/g
tissue uptake at 1 h ([1]; adrenals, 1 h blocked (7.5 μg LY2510924 i.p.), read-out: Biodistribution Adrenals): 0.18 %ID/g
tissue uptake at 2 h ([1]; adrenals, read-out: Biodistribution Adrenals): 0.1 %ID/g
tissue uptake at 1 h ([1]; blood, 1 h, read-out: Biodistribution Blood): 0.33 %ID/g
tissue uptake at 1 h ([1]; blood, 1 h blocked (7.5 μg LY2510924 i.p.), read-out: Biodistribution Blood): 0.54 %ID/g
tissue uptake at 2 h ([1]; blood, read-out: Biodistribution Blood): 0.06 %ID/g
tissue uptake at 1 h ([1]; bone, 1 h, read-out: Biodistribution Bone): 0.12 %ID/g
tissue uptake at 1 h ([1]; bone, 1 h blocked (7.5 μg LY2510924 i.p.), read-out: Biodistribution Bone): 0.15 %ID/g
tissue uptake at 2 h ([1]; bone, read-out: Biodistribution Bone): 0.11 %ID/g
tissue uptake at 1 h ([1]; brain, 1 h, read-out: Biodistribution Brain): 0.01 %ID/g
tissue uptake at 1 h ([1]; brain, 1 h blocked (7.5 μg LY2510924 i.p.), read-out: Biodistribution Brain): 0.02 %ID/g
tissue uptake at 2 h ([1]; brain, read-out: Biodistribution Brain): 0.01 %ID/g
tissue uptake at 1 h ([1]; fat, 1 h, read-out: Biodistribution Fat): 0.2 %ID/g
tissue uptake at 1 h ([1]; fat, 1 h blocked (7.5 μg LY2510924 i.p.), read-out: Biodistribution Fat): 0.16 %ID/g
tissue uptake at 2 h ([1]; fat, read-out: Biodistribution Fat): 0.01 %ID/g
tissue uptake at 1 h ([1]; heart, 1 h, read-out: Biodistribution Heart): 0.14 %ID/g
tissue uptake at 1 h ([1]; heart, 1 h blocked (7.5 μg LY2510924 i.p.), read-out: Biodistribution Heart): 0.21 %ID/g
tissue uptake at 2 h ([1]; heart, read-out: Biodistribution Heart): 0.06 %ID/g
tissue uptake at 1 h ([1]; intestine, 1 h, read-out: Biodistribution Intestine): 0.18 %ID/g
tissue uptake at 1 h ([1]; intestine, 1 h blocked (7.5 μg LY2510924 i.p.), read-out: Biodistribution Intestine): 0.25 %ID/g
tissue uptake at 2 h ([1]; intestine, read-out: Biodistribution Intestine): 0.14 %ID/g
tissue uptake at 1 h ([1]; kidney, 1 h, read-out: Biodistribution Kidney): 3.6 %ID/g
tissue uptake at 1 h ([1]; kidney, 1 h blocked (7.5 μg LY2510924 i.p.), read-out: Biodistribution Kidney): 3.75 %ID/g
tissue uptake at 2 h ([1]; kidney, read-out: Biodistribution Kidney): 4.67 %ID/g
tissue uptake at 1 h ([1]; liver, 1 h, read-out: Biodistribution Liver): 0.55 %ID/g
tissue uptake at 1 h ([1]; liver, 1 h blocked (7.5 μg LY2510924 i.p.), read-out: Biodistribution Liver): 0.5 %ID/g
tissue uptake at 2 h ([1]; liver, read-out: Biodistribution Liver): 0.73 %ID/g
tissue uptake at 1 h ([1]; lung, 1 h, read-out: Biodistribution Lung): 0.5 %ID/g
tissue uptake at 1 h ([1]; lung, 1 h blocked (7.5 μg LY2510924 i.p.), read-out: Biodistribution Lung): 0.6 %ID/g
tissue uptake at 2 h ([1]; lung, read-out: Biodistribution Lung): 0.33 %ID/g
tissue uptake at 1 h ([1]; muscle, 1 h, read-out: Biodistribution Muscle): 0.08 %ID/g
tissue uptake at 1 h ([1]; muscle, 1 h blocked (7.5 μg LY2510924 i.p.), read-out: Biodistribution Muscle): 0.11 %ID/g
tissue uptake at 2 h ([1]; muscle, read-out: Biodistribution Muscle): 0.03 %ID/g
tissue uptake at 1 h ([1]; pancreas, 1 h, read-out: Biodistribution Pancreas): 0.1 %ID/g
tissue uptake at 1 h ([1]; pancreas, 1 h blocked (7.5 μg LY2510924 i.p.), read-out: Biodistribution Pancreas): 0.12 %ID/g
tissue uptake at 2 h ([1]; pancreas, read-out: Biodistribution Pancreas): 0.04 %ID/g
tissue uptake at 1 h ([1]; spleen, 1 h, read-out: Biodistribution Spleen): 0.28 %ID/g
tissue uptake at 1 h ([1]; spleen, 1 h blocked (7.5 μg LY2510924 i.p.), read-out: Biodistribution Spleen): 0.37 %ID/g
tissue uptake at 2 h ([1]; spleen, read-out: Biodistribution Spleen): 0.25 %ID/g
tissue uptake at 1 h ([1]; stomach, 1 h, read-out: Biodistribution Stomach): 0.05 %ID/g
tissue uptake at 1 h ([1]; stomach, 1 h blocked (7.5 μg LY2510924 i.p.), read-out: Biodistribution Stomach): 0.06 %ID/g
tissue uptake at 2 h ([1]; stomach, read-out: Biodistribution Stomach): 0.06 %ID/g
tissue uptake at 1 h ([1]; testes, 1 h, read-out: Biodistribution Testes): 0.18 %ID/g
tissue uptake at 1 h ([1]; testes, 1 h blocked (7.5 μg LY2510924 i.p.), read-out: Biodistribution Testes): 0.35 %ID/g
tissue uptake at 2 h ([1]; testes, read-out: Biodistribution Testes): 0.06 %ID/g
Ratio Tumor: Blood ([2]; 1 h): 5.74
Ratio Tumor: Bone ([2]; 1 h): 15.68
Ratio Tumor: Liver ([2]; 1 h): 3.31
Ratio Tumor: Lung ([2]; 1 h): 3.71
Ratio Tumor: Muscle ([2]; 1 h): 23.74
Ratio Tumor: Spleen ([2]; 1 h): 6.62
Ratio Tumor: Blood [2, 4]: 1.56
Ratio Tumor: Bone [2, 4]: 6.16
Ratio Tumor: Liver [2, 4]: 1.62
Ratio Tumor: Lung [2, 4]: 1.36
Ratio Tumor: Muscle [2, 4]: 7.68
Ratio Tumor: Spleen [2, 4]: 2.16
Ratio Tumor: Blood ([2]; 2h): 25.33
Ratio Tumor: Bone ([2]; 2h): 13.96
Ratio Tumor: Liver ([2]; 2h): 1.99
Ratio Tumor: Lung ([2]; 2h): 4.36
Ratio Tumor: Muscle ([2]; 2h): 55.01
Ratio Tumor: Spleen ([2]; 2h): 5.63
% Intact Peptide [3]: >99%
